The target of this assay is T1, recombinant human PLA2G2A (sPLA2-IIA) (Homo sapiens, UniProt P14555).
T1 sequence (P14555 21-144): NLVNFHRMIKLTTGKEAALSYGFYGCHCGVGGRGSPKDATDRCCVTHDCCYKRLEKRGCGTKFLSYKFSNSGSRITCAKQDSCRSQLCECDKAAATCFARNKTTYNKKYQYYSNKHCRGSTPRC
Description: Susceptibility of phospholipid digestion by sPLA2-IIA (lens pieces in ATF with and without sPLA2, LCMS of released fatty acid). The following applies: phospholipid present in a silicone hydrogel contact lens body.

These results are taken from patent US12153287B2, “Sustained fatty acid release from contact lens” (CooperVision International Limited, priority 2022, dated 2024).

Description: Each phospholipid-loaded lens is removed from its package and placed in a 6 mL glass vial containing 5 mL of the ATF described in Example 2 at room temperature on a shaker at 125 rpm overnight to elute any free fatty acid that may be present in the lens.
Each lens is rinsed in a 6 ml glass vial containing a fresh aliquot of 5 mL ATF for 30 minutes prior to running the digestion assay.
Two 4 mm pieces are cut from each lens. One piece of each lens is placed in a tube with 100 μL ATF and the other piece is placed in a tube containing 100 μL ATF+sPLA2. The tubes are incubated at 35±2° C. for 4 hours with no shaking.
T=0 hr HPLC vials are also prepared (50 μl ATF+500 μl IPA). All vials are sonicated for 15 minutes and centrifuged. […]
The supernatants are injected on an LCMS instrument equipped with an ACQUITY UPLC BEH C18 1.7 μg, 2.1 mm×15 cm column and running a mobile phase gradient from 65% A to 90% B at a flow rate of 0.35 mL/min with A=40% acetonitrile in water with 10 mM ammonium acetate and 0.2% (v/v) ammonium hydroxide, and B=10% acetonitrile in IPA with 10 mM ammonium acetate and 0.2% (v/v) ammonium hydroxide. […] The peak for the particular fatty acid of interest in the supernatants (i.e., the fatty acid that is released from the sn-2 position of the phospholipid in the contact lens) is measured. The ratio of fatty acid peak area in ATF with and without sPLA2 is calculated. […]

In the case of `CCCCCCCCCCCCCC(=O)OC[C@H](COP(=O)([O-])OCC[N+](C)(C)C)OC(=O)CCCCCCCCCCCCC` [DMPC, 1,2-dimyristoyl-sn-glycero-3-phosphocholine], the “Susceptibility to digestion by sPLA2 enzymes found in human tears” value is “not susceptible to digestion”. Under `CCCCCCCC/C=C\CCCCCCCC(=O)OC[C@H](COP(=O)([O-])OCC[N+](C)(C)C)OC(=O)CCCCCCC/C=C\CCCCCCCC` [DOPC, 1,2-dioleoyl-sn-glycero-3-phosphocholine] stands “not susceptible to digestion”.
